In US20060128729A1, “Novel bicyclic heterocyclic compounds, process for their preparation and compositions containing them” (priority 2004, published 2006):
Where a name gives a salt, the structure may show the parent alone. Read-outs that look alike come from different tables or passages of the source.

Experiments:
[1] = tested on: human aortic smooth muscle cells; test: Smooth muscle cell proliferation assay (radiolabeled thymidine incorporation or CellTiter AQ); format: cell-based; settings: human aortic SMC; for IC50: 24 h post treatment in serum-containing growth medium, read-out: Activity: concentration giving 50% inhibition of smooth muscle cell proliferation
Protocol: Primary cultures of human aortic smooth muscle cells were obtained from Clonetics. SMC were initially grown in T-75 flasks prior to seeding in 96 well plates. The 96-well plates were seeded with 4000 cells/well. The following day cells were washed with serum free medium and left in serum free media for 24 hours for serum starvation. The next day cells received growth medium containing serum with or without compound. 24 h post treatment cell proliferation was assayed either assessing the incorporation of radiolabeled thymidine to DNA or using a non-radioactive cell proliferation kit from Promega (CellTiter AQ).

[2] = tested on: MCP-1 (monocyte chemoattractant protein 1); test: MCP-1 ELISA on supernatants of stimulated human aortic endothelial cells; format: cell-based; settings: HAECs treated with TNFα (0.05 ng/ml) or glycated human serum albumin (300 μg/ml) for 18-24 h, read-out: IC50 in MCP-1 enzyme-linked immunosorbent assay
Protocol: (§1) For inflammation assays, human aortic endothelial cells (HAECS) in 96 well plates were washed once with treatment medium (basal medium containing 1% FBS). Cells were treated with an inflammatory agent such as TNFα (0.05 ng/ml) or glycated human serum albumin (US Biologicals) as source of advanced glycation end products (AGEs) (300 μg/ml) for 18-24 h in the presence or absence of specified amount of compound. Cell supernatants were collected and used for the estimation of MCP-1 (monocyte chemoattractant protein 1) or IL-6 (interleukin-6) by ELISA. Cell layers were washed and used for determining the levels of vascular cell adhesion molecule-1 (VCAM-1).
MCP-1 ELISA was carried out using Quantikine Human MCP-1 kit as described by the manufacturer (R&D Systems, Inc.). Mouse anti-human MCP-1 was used as the capture antibody and HRP (horse radish peroxidase)-conjugated goat anti-human MCP-1 antibody was used as detection antibody. Culture medium was incubated with the capture antibody (in 96-well plate) for 2 h at room temperature. Wells were washed three times with wash buffer (0.05% Tween-20 in PBS) followed by incubation with detection antibody for 2 h at room temperature. Color development was read at […] in a microplate reader.

[3] = tested on: VCAM-1 (vascular cell adhesion molecule-1); test: VCAM-1 ELISA on cell layers of stimulated human aortic endothelial cells; format: cell-based; settings: HAECs treated with TNFα (0.05 ng/ml) or glycated human serum albumin (300 μg/ml) for 18-24 h, read-out: IC50 in VCAM-1 enzyme-linked immunosorbent assay
Protocol: as §1
The cells were fixed cells with 100% methanol for 10 min at room temperature. The methanol was removed and the plate was air-dried. 100 ul of 1:1000 diluted primary antibody (polyclonal goat anti-human VCAM-1—R&D Systems #BBA19) was then added and incubated for 2 h at 37 C. The cells were washed with PBS and 100 ul of 1:5000 dilution of secondary antibody (rabbit anti-goat IgG-HRP—Zymed #81-1620) was added and incubated for 1 h at room temperature. Cells were washed and 100 ul of substrate solution (R&D Systems# DY999) was added and incubated for 20 min in the dark at room temp. 50 μl of stop solution (2N sulfuric acid) was added to the wells and absorbency at 450 nm was noted.

IL-6 (interleukin-6) = test: IL-6 ELISA on media of stimulated human aortic endothelial cells; format: cell-based; settings: Endothelial cell; HAECs treated with TNFα (0.05 ng/ml) or glycated human serum albumin (300 μg/ml) for 18-24 h; read-out: IC50 in IL-6 enzyme-linked immunosorbent assay
Protocol: as §1
IL-6 levels in endothelial cell media were determined using DuaSet IL-6 ELISA kit from R&D Systems (Cat No DY206) as described by the manufacturer. Mouse anti-human IL-6 antibody was used as the capture antibody and biotinylated goat anti-human IL-6 was used as detection antibody. Culture medium was incubated with the capture antibody (in 96-well plate) for 2 h at room temperature. Wells were washed three times with wash buffer (0.05% Tween-20 in PBS) followed by incubation with detection antibody for 2 h at room temperature. The wells were then incubated with streptavidin HRP and color development was read at 450 nm in a microplate reader.

IC50 ([2]; Homo sapiens, Endothelial cell) | IC50 ([3]; Homo sapiens, Endothelial cell) | IC50 (IL-6 (interleukin-6)) | melting point | IC50 [2] | IC50 [3] | Compound | IC50 [1] | inhibition at 1 µM ([1]; at 1 μM, 24 h post treatment) | inhibition at 5 µM ([1]; at 5 μM, 24 h post treatment)
3.8 µM | 14 µM | – | – | – | – | COc1ccc(Nc2nc(-c3ccc(F)cc3)cc3c2c(C)nn3C)cc1Cl [E 72, (3-chloro-4-methoxy-phenyl)-[6-(4-fluoro-phenyl)-1,3-dimethyl-1H-pyrazolo[4,3-c]pyridin-4-yl]-amine hydrochloride] | 1.3 µM | – | –
4.1 µM | 13.7 µM | – | – | – | – | COc1ccc(Nc2nc(-c3ccc(F)cc3)cc3c2c(C)nn3C)cc1F [E 73, (3-fluoro-4-methoxy-phenyl)-[6-(4-fluoro-phenyl)-1,3-dimethyl-1H-pyrazolo[4,3-c]pyridin-4-yl]-amine hydrochloride] | 0.9 µM | – | –
5.4 µM | 11.1 µM | – | – | – | – | COc1ccc(Nc2nc(-c3ccc(F)cc3)nc3c2cnn3-c2ccccc2)cc1F [E 80, (3-fluoro-4-methoxy phenyl)-[6-(4-fluoro-phenyl)-1-phenyl-1H-pyrazolo[3,4-d]-pyrimidin-4yl]amine hydrochloride] | 0.46 µM | – | –
5.2 µM | 8.9 µM | – | 203.83 °C | – | – | Cl.Fc1ccc(-c2nc(Nc3ccc(Cl)c(C(F)(F)F)c3)c3cnn(-c4ccccc4)c3n2)cc1 [E 81, (4-chloro-3-trifluoromethyl-phenyl)-[6-(4-fluoro-phenyl)-1-phenyl-1H-pyrazolo[3,4-d]pyrimidin-4-yl]-amine hydrochloride] | 3.9 µM | – | –
– | – | – | – | 9 µM | 12.7 µM | CCCc1nn(C)c2c(Nc3ccc(OC)c(F)c3)nc(-c3ccc(F)cc3)nc12 [E 86, (3-fluoro-4-methoxy-phenyl)-[5-(4-fluoro-phenyl)-1-methyl-3-propyl-1H-pyrazolo[4,3-d]pyrimidin-7-yl]-amine] | – | – | –

More lines, now with the values behind:

Compound | IC50 ([2]; Homo sapiens, Endothelial cell) | IC50 ([3]; Homo sapiens, Endothelial cell) | IC50 (IL-6 (interleukin-6)) | melting point | IC50 [2] | IC50 [3] | IC50 [1] | inhibition at 1 µM ([1]; at 1 μM, 24 h post treatment) | inhibition at 5 µM ([1]; at 5 μM, 24 h post treatment)
CCCc1nn(C)c2c(Nc3ccc(OC)c(F)c3)nc(-c3ccc(F)cc3)nc12 [E 1, (3-fluoro-4-methoxy-phenyl)-[5-(4-fluoro-phenyl)-1-methyl-3-propyl-1H-pyrazolo[4,3-d]pyrimidin-7-yl]-amine hydrochloride] | 7.2 µM | 11.8 µM | 5.4 µM | – | – | – | 0.89 µM | – | –
CCCc1nn(C)c2c(Nc3ccc(OC)c(Cl)c3)nc(-c3ccc(F)cc3)nc12.Cl [E 2, (3-chloro-4-methoxy-phenyl)-[5-(4-fluoro-phenyl)-1-methyl-3-propyl-1H-pyrazolo[4,3-d]pyrimidin-7-yl]-amine-hydrochloride] | 13.4 µM | 10.4 µM | 9 µM | 253.65 °C | – | – | 1.62 µM | – | –
CCCc1nn(C)c2c(Nc3ccc4c(c3)OCO4)nc(-c3ccc(F)cc3)nc12.Cl [E 8, benzo[1,3]dioxol-5-yl-[5-(4-fluoro-phenyl)-1-methyl-3-propyl-1H-pyrazolo[4,3-d]pyrimidin-7-yl]-amine-hydrochloride] | 8.7 µM | 12.4 µM | – | < 260 °C | – | – | 1 µM | – | –
CCCc1nn(C)c2c(Nc3ccc(OC)c(F)c3)nc(-c3cccs3)nc12.Cl [E 10, (3-fluoro-4-methoxy-phenyl)-(1-methyl-3-propyl-5-thiophen-2-yl-1H-pyrazolo[4,3-d]pyrimidin-7-yl) -amine hydrochloride] | 1.6 µM | 11.8 µM | – | 238 to 242 °C | – | – | – | 96% | –
CCCc1nn(C)c2c(Nc3ccc(OC)c(Cl)c3)nc(-c3ccccc3)nc12.Cl [E 27, (3-chloro-4-methoxy-phenyl)-(1-methyl-5-phenyl-3-propyl-1H-pyrazolo[4,3-d]pyrimidin-7-yl)-amine hydrochloride] | 5.7 µM | 8.4 µM | 9.6 µM | 238 to 240 °C | – | – | 1.28 µM | – | –
CCCc1nn(C)c2c(Nc3ccc(OC)c(F)c3)nc(-c3ccccc3)nc12.Cl [E 28, (3-fluoro-4-methoxy-phenyl)-(1-methyl-5-phenyl-3-propyl-1H-pyrazolo[4,3-d]pyrimidin-7-yl)-amine hydrochloride] | 7.5 µM | 8.4 µM | – | 248 to 250 °C | – | – | – | – | 70%
Cc1nn(C)c2c(Nc3cccc(C(N)=O)c3)nc(-c3ccc(F)cc3)nc12.Cl [E 49, 3-[5-(4-fluoro-phenyl)-1,3-dimethyl-1H-pyrazolo[4,3-d]pyrimidin-7-ylamino]-benzamide hydrochloride] | 0.34 µM | 0.61 µM | – | 258 to 260 °C | – | – | – | – | –
CNC(=O)c1cccc(Nc2nc(-c3ccc(F)cc3)nc3c(C)nn(C)c23)c1.Cl [E 50, 3-[5-(4-fluoro-phenyl)-1,3-dimethyl-1H-pyrazolo[4,3-d]pyrimidin-7-ylamino]-N-methyl-benzamide hydrochloride] | 0.42 µM | 1.68 µM | – | 272 to 274 °C | – | – | – | – | –
CCCc1nn(C)c2c(Nc3ccc4c(c3)OCO4)nc(-c3cccs3)nc12 [E 52, benzo[1,3]dioxol-5-yl-(1-methyl-3-propyl-5-thiophen-2-yl-1H-pyrazolo[4,3-d]pyrimidin-7-yl)-amine hydrochloride] | 8.7 µM | 10.9 µM | – | – | – | – | 0.5 µM | – | –
